For orientation: kinetic solubility means the concentration staying in solution when a stock, usually in DMSO, is diluted into the medium. The T/C is the result in the treated group divided by that in the control group, in per cent. A word on the GI50: it is the concentration that inhibits growth by half. A higher GI50 goes with lower sensitivity of the cells. Usually logD stands for lipophilicity at a set pH, counting ionised and neutral species.

SMILES strings stand for the structures. Calls of active or inactive are those of the source. No cut-off for these calls is given here.

For series [1], the target named is T1, Kinesin-like protein KIF20A (Homo sapiens) (UniProt O95235).
T1 sequence (whole entry): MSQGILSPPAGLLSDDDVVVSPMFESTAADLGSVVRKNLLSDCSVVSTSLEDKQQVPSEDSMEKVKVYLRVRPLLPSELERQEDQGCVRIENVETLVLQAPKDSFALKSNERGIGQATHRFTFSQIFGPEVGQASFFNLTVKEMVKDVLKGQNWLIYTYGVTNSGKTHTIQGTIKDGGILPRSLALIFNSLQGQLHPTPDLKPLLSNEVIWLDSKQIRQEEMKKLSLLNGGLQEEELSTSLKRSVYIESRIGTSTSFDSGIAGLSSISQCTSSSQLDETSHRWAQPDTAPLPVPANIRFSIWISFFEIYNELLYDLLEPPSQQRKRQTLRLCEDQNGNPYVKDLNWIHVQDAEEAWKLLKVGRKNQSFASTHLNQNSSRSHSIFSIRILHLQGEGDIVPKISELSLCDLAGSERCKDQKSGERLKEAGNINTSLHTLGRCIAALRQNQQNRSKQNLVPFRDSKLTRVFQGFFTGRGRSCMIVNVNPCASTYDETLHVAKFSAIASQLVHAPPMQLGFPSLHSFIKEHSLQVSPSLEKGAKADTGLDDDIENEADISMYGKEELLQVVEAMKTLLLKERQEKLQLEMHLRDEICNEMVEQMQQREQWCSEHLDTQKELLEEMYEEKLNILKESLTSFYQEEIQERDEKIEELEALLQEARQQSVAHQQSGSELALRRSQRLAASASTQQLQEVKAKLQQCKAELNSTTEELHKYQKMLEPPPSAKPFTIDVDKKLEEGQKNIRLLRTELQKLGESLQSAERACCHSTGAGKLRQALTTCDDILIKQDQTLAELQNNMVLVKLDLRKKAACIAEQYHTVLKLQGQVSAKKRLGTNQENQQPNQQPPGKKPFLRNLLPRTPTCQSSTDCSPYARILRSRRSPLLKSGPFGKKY
The experiment in a line: Inhibition of MKLP2 ATPase activity.

Series [2] in a line: Turbidimetric solubility of the compound at pH 6. The settings on record: buffer. Format: physicochemical.
A short description of series [3]: Antitumor activity against human LXFS 538 cells xenografted in nu/nu nude Charles river mouse assessed as inhibition of tumor growth dosed at 20 mg/kg on days 0, 2 and 4 and 15 mg/kg on days 17, 19, 24 measured after 10 days. The series is classed as functional. In general terms: In xenograft studies the graft and the host belong to different species.
The target of series [4] is T2, Kinesin heavy chain isoform 5A (Homo sapiens) (UniProt Q12840).
T2 sequence (whole entry): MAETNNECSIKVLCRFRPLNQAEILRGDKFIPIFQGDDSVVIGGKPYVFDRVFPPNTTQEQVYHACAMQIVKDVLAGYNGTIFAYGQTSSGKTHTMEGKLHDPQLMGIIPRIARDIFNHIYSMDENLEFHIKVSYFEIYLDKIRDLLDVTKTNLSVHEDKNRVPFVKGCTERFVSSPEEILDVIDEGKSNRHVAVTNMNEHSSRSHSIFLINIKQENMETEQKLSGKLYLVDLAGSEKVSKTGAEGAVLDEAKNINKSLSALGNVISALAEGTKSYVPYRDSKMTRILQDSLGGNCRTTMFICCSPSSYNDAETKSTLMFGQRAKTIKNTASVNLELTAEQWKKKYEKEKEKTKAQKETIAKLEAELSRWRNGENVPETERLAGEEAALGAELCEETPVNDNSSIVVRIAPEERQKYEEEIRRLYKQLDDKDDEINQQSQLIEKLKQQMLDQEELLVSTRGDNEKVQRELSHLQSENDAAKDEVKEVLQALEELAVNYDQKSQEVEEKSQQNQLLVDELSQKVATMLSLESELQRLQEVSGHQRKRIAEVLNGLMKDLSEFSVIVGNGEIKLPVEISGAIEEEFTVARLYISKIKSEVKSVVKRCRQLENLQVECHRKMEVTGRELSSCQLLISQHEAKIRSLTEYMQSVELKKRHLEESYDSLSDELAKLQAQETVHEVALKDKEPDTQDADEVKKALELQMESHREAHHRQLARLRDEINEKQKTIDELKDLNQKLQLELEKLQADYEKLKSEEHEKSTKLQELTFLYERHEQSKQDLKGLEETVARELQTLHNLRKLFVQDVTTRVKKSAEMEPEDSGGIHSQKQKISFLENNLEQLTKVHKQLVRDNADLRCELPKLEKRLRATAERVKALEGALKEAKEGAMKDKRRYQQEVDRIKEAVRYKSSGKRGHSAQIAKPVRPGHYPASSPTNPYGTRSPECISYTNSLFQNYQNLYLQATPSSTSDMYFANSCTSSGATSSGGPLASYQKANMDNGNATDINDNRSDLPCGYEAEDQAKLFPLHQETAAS
The experiment in a line: Inhibition of MT-stimulated Kif5a ATPase activity.

The target of series [5] is Centromere-associated protein E (Homo sapiens) (UniProt Q02224). Briefly: Inhibition of MT-stimulated CENP-E ATPase activity.
Another series deals with NCI-H1299. Briefly: Antiproliferative activity against human NCI-H1299 cells after 72 hrs by Alamar blue assay. Format: functional. The settings on record: NCI-H1299, 72 h. (Alamar Blue is a resazurin reagent that responds to reducing activity.)
Series [6] has as its target Kinesin-like protein KIF20B (Homo sapiens) (UniProt Q96Q89). The experiment in a line: Inhibition of MPP1 ATPase activity.
In series [7] the target is T1, Kinesin-like protein KIF20A (Homo sapiens). The experiment in a line: Inhibition of MT-stimulated MKLP2 ATPase activity.
Series [8] can be described thus: Distribution coefficient, log D of the compound at pH 7.4. The settings on record: octanol/water, read-out: logD. Format: physicochemical.
Series [9] has as its target T2, Kinesin heavy chain isoform 5A (Homo sapiens). Briefly: Inhibition of Kif5a ATPase activity.
The next series deals with HCT-116. Briefly: Antiproliferative activity against human HCT116 cells after 72 hrs by Alamar blue assay. The series is classed as functional. The following applies: HCT-116, 72 h.

Chain of Centromere-associated protein E (Homo sapiens) (Q02224 whole entry): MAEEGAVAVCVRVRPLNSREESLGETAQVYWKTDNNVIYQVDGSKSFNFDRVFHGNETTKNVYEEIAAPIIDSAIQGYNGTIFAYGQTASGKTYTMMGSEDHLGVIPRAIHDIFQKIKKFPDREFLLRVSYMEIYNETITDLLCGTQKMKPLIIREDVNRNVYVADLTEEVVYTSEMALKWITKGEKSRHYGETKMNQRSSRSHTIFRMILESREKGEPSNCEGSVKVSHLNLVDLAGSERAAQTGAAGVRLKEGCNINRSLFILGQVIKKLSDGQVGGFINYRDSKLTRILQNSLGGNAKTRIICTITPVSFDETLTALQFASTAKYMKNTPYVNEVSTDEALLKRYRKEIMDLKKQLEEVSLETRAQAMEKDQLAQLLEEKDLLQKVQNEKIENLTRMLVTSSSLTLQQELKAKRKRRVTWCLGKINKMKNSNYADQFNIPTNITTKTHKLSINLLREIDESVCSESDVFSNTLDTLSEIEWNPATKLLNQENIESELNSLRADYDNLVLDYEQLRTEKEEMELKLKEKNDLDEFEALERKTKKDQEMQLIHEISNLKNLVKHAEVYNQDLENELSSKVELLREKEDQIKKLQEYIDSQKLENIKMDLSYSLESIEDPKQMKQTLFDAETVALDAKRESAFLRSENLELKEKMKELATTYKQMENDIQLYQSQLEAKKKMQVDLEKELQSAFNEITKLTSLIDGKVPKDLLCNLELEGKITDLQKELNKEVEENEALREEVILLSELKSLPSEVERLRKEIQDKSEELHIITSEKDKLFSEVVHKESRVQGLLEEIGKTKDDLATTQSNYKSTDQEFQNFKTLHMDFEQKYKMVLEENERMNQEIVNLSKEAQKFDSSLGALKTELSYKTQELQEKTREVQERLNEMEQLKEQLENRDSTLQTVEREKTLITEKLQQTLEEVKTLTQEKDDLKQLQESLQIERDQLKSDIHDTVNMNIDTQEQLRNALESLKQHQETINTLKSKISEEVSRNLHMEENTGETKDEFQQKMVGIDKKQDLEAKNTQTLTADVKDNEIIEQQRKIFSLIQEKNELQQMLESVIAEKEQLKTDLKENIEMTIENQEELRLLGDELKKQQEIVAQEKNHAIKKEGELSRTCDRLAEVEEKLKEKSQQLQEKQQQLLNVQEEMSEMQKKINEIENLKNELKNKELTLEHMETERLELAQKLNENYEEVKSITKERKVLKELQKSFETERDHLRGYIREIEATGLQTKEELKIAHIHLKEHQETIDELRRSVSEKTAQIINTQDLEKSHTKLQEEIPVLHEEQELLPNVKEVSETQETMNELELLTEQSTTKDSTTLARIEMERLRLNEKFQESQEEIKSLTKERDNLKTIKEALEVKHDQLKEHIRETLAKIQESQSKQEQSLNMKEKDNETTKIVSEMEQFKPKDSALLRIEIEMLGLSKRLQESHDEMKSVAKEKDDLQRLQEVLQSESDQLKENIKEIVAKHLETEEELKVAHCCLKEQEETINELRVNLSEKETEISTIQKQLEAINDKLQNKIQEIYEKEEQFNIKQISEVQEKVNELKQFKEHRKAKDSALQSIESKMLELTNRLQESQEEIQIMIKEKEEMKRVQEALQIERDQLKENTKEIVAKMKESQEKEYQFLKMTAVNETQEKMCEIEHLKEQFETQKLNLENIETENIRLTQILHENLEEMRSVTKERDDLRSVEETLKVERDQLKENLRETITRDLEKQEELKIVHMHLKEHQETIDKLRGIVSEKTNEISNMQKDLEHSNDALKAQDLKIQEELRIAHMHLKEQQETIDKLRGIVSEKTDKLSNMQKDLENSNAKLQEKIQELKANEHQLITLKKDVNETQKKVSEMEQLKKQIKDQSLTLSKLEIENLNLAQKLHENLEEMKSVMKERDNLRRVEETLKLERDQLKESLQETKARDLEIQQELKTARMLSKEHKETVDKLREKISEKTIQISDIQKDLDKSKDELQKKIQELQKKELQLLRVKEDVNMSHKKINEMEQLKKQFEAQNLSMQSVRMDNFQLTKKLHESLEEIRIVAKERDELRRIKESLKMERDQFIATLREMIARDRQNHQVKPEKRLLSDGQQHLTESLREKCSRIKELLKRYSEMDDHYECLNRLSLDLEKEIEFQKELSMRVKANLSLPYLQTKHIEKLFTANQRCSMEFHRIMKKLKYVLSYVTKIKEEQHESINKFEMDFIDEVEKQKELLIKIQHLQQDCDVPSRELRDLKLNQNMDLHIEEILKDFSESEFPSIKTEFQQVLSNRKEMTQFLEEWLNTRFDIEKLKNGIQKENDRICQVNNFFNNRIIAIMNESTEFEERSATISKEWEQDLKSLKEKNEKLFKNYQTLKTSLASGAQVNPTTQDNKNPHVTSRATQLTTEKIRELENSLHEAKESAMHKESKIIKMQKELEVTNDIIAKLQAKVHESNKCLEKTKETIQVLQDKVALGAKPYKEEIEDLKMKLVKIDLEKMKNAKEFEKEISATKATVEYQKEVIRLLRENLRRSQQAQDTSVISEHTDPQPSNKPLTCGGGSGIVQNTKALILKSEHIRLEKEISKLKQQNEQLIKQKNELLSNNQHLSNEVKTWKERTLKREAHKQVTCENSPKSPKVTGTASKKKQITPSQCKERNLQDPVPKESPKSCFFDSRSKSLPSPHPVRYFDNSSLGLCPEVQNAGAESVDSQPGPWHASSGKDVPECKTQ
Chain of Kinesin-like protein KIF20B (Homo sapiens) (Q96Q89 whole entry): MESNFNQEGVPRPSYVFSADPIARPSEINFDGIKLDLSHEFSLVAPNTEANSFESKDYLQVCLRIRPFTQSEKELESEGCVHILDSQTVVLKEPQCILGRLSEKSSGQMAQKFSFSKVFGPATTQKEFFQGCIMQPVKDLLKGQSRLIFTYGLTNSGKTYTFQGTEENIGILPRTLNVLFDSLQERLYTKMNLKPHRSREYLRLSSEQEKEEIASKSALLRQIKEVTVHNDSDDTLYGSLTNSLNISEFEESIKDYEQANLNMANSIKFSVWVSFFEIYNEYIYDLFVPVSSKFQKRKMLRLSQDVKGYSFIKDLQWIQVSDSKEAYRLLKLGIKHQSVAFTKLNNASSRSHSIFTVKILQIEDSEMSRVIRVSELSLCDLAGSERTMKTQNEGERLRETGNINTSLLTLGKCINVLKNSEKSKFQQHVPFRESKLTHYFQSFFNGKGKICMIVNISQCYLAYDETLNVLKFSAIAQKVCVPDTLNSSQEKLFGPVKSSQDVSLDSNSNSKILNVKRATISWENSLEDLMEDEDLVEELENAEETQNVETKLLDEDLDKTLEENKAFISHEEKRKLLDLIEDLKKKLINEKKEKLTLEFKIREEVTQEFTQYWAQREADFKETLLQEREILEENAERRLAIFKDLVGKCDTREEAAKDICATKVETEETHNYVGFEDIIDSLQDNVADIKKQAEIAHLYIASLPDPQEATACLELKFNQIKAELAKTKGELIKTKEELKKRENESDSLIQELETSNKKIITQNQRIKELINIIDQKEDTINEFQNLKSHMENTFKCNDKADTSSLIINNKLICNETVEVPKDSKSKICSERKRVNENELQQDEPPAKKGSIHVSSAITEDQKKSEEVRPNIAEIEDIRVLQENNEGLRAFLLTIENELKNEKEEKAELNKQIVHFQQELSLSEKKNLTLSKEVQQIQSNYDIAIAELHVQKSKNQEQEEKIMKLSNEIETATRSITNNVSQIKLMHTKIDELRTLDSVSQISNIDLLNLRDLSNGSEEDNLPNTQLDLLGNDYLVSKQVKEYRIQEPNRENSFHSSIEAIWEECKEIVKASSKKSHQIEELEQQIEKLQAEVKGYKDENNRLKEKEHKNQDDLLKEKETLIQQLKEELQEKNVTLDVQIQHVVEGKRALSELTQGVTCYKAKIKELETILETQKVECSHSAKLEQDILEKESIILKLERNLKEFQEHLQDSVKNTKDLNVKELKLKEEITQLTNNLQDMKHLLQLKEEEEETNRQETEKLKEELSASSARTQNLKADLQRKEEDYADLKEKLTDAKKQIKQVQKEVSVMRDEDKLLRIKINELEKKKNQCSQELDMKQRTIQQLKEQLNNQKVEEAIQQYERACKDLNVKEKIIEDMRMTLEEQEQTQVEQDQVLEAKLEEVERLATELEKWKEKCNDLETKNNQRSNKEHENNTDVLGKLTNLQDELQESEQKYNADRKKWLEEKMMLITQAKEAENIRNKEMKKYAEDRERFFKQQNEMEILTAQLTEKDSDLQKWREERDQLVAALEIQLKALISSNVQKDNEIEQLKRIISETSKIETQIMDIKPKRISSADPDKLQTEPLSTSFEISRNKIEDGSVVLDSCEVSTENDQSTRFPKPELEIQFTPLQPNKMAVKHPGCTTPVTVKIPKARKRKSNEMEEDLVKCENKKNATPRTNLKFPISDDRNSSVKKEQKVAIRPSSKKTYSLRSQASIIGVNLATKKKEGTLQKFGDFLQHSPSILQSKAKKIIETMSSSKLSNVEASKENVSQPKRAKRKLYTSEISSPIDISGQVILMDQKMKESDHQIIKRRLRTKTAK

In the case of `Cc1cccc(C(CCC(N)C(=O)O)(c2ccccc2)c2ccccc2)c1` (racemic), the inhibition entry in [1], in series [4], in [5], in series [6], in series [7] and in series [9] was “inactive” throughout. The same compound returned a kinetic solubility in [2] above 100 µM. Further, the T/C in series [3] is 26.3%. The concentration for 50% growth inhibition (GI50) in the series on NCI-H1299 is 137 nM; in the series on HCT-116, 99 nM. The logD in series [8] came out at 2.45.
